Experimental data as given in US11753411B2, “Substituted pyrazolo[1,5-a]pyrimidines as TYK2 pseudokinase ligands” (Ventyx Biosciences, Inc., priority 2019, dated 2023).

The compounds below were run on IFN-a/Jak1 Tyk2 (assay: Co-stimulation assay in lysed whole blood: IFNa (JAK1/TYK2) stimulated STAT1 phosphorylation). Conditions: Homo sapiens, 20 min, 100 ng/mL IFNa (with 10 ng/mL GM-CSF), pSTAT by flow cytometry.
Type: cell-based
Outline: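 Lysed human whole blood (RBC-lysed, resuspended in cRPMI) pre-incubated with compound 1 h at 37 °C, then stimulated 20 min with IFNa 100 ng/mL plus GM-CSF 10 ng/mL (final). Fixed, permeabilised, stained for pSTAT1 (PE) and pSTAT5 (AF488); flow cytometry read-out, ≥5,000–10,000 cells acquired.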

**Q.** With `CNC(=O)Nc1cnn2c(NC)cc(Nc3cccc4c3CCCO4)nc12` [Compound 154, 1-(5-(chroman-5-ylamino)-7-(methylamino)pyrazolo[1,5-a]pyrimidin-3-yl)-3-methylurea] as the compound, how does the IC50 read?
**A.** Its IC50 is under 1 µM.

**Q.** With `CNC(=O)Nc1cnn2c(NC)cc(Nc3cccc(-c4cnn(C)c4)c3OC)nc12` [Compound 19, 1-(5-((2-methoxy-3-(1-methyl-1H-pyrazol-4-yl)phenyl)amino)-7-(methylamino)pyrazolo[1,5-a]pyrimidin-3-yl)-3-methylurea] as the compound, how does the IC50 read?
**A.** The IC50 was 1 to 10 µM.

**Q.** With `CNC(=O)Nc1cnn2c(NC)cc(Nc3ccccc3S(C)(=O)=O)nc12` [Compound 156, 1-methyl-3-(7-(methylamino)-5-((2-(methylsulfonyl)phenyl)amino)py-razolo[1,5-a]pyrimidin-3-yl)urea] as the compound, how does the IC50 read?
**A.** Its IC50 is at least 10 µM.

**Q.** `CNc1cc(Nc2cc(F)cc3c2OCCO3)nc2c(NC(=O)NC3CS(=O)(=O)C3)cnn12` [Compound 126, 1-(1,1-dioxidothietan-3-yl)-3-(5-((7-fluoro-2,3-dihydrobenzo[b][1,4]dioxin-5-yl)amino)-7-(methylamino)pyrazolo[1,5-a]pyrimidin-3-yl)urea] was tested. Which IC50 did it give?
**A.** The IC50 was 1 to 10 µM.

**Q.** `CNc1cc(Nc2cc(F)cc3c2OCCO3)nc2c(NC(=O)N[C@@H]3C[C@H]3F)cnn12` [Compound 187, 1-(5-((7-fluoro-2,3-dihydrobenzo[b][1,4]dioxin-5-yl)amino)-7-(methylamino)pyrazolo[1,5-a]pyrimidin-3-yl)-3-((1R,2R)-2-fluorocyclopropyl)urea] was tested. Which IC50 did it give?
**A.** The IC50 was 1 to 10 µM.

**Q.** For `C#CCNC(=O)Nc1cnn2c(NC)cc(Nc3c(F)ccc4c3OCCO4)nc12` [Compound 135, 1-(5-((6-fluoro-2,3-dihydrobenzo[b][1,4]dioxin-5-yl)amino)-7-(methylamino)pyrazolo[1,5-a]pyrimidin-3-yl)-3-(prop-2-yn-1-yl)urea], which IC50 is on record?
**A.** Its IC50 is 1 to 10 µM.

**Q.** For `[2H]C([2H])([2H])Nc1cc(Nc2cc(F)cc3c2OCCO3)nc2c(NC(=O)N[C@@H]3C[C@@H]3F)cnn12` [Compound 49, 1-(5-((7-fluoro-2,3-dihydrobenzo[b][1,4]dioxin-5-yl)amino)-7-((methyl-d3)amino)pyrazolo[1,5-a]pyrimidin-3-yl)-3-((1R,2S)-2-fluorocyclopropyl)urea], which IC50 is on record?
**A.** The IC50 was under 1 µM.

**Q.** Which IC50 does the source give for `CNc1cc(Nc2cccc3c2OCCO3)nc2c(NC(=O)NC3CC(C)(O)C3)cnn12` (stereo not shown) [Compound 48, 1-(5-((2,3-dihydrobenzo[b][1,4]dioxin-5-yl)amino)-7-(methylamino)pyrazolo[1,5-a]pyrimidin-3-yl)-3-(3-hydroxy-3-methylcyclobutyl)urea] here?
**A.** The IC50 was at least 10 µM.

**Q.** `CNc1cc(Nc2cccc3c2OCCO3)nc2c(NC(=O)N[C@H](C)C#N)cnn12` [Compound 122, (R)-1-(1-cyanoethyl)-3-(5-((2,3-dihydrobenzo[b][1,4]dioxin-5-yl)amino)-7-(methylamino)pyrazolo[1,5-a]pyrimidin-3-yl)urea] was tested. Which IC50 did it give?
**A.** Its IC50 is under 1 µM.

**Q.** Which IC50 does the source give for `CNc1cc(Nc2cccc3c2OCCO3)nc2c(NC(=O)NC3CC(O)C3)cnn12` (stereo not shown) [Compound 29, 1-(5-((2,3-dihydrobenzo[b][1,4]dioxin-5-yl)amino)-7-(methylamino)pyrazolo[1,5-a]pyrimidin-3-yl)-3-(3-hydroxycylcobutyl)urea] here?
**A.** The IC50 was 1 to 10 µM.

**Q.** For `CNC(=O)Nc1cnn2c(NC)cc(-c3cn(C(C)C)c4ncccc34)nc12` [Compound 72, 1-(5-(1-isopropyl-1H-pyrrolo[2,3-b]pyridin-3-yl)-7-(methylamino)pyrazolo[1,5-a]pyrimidin-3-yl)-3-methylurea], which IC50 is on record?
**A.** The IC50 was under 1 µM.

**Q.** Which IC50 does the source give for `CNC(=O)Nc1cnn2c(NC)cc(-c3cn(C4CCOCC4)c4ncccc34)nc12` [Compound 80, 1-methyl-3-(7-(methylamino)-5-(1-(tetrahydro-2H-pyran-4-yl)-1H-pyrrolo[2,3-b]pyridin-3-yl)pyrazolo[1,5-a]pyrimidin-3-yl)urea] here?
**A.** Its IC50 is under 1 µM.

**Q.** `CNc1cc(Nc2cc(Cl)cc3c2OCCO3)nc2c(NC(=O)NC3CC3)cnn12` [Compound 85, 1-(5-((7-chloro-2,3-dihydrobenzo[b][1,4]dioxin-5-yl)amino)-7-(methylamino)pyrazolo[1,5-a]pyrimidin-3-yl)-3-cyclopropylurea] was tested. Which IC50 did it give?
**A.** The IC50 was under 1 µM.

**Q.** For `CNC(=O)Nc1cnn2c(NC)cc(Nc3ccc4c(c3)OCCO4)nc12` [Compound 107, 1-(5-((2,3-dihydrobenzo[b][1,4]dioxin-6-yl)amino)-7-(methylamino)pyrazolo[1,5-a]pyrimidin-3-yl)-3-methylurea], which IC50 is on record?
**A.** The IC50 was 1 to 10 µM.

**Q.** For `CNC(=O)Nc1cnn2c(NC)cc(N(C)c3ccccc3)nc12` [Compound 159, 1-methyl-3-(5-(methyl(phenyl)amino)-7-(methylamino)pyrazolo[1,5-a]pyrimidin-3-yl)urea], which IC50 is on record?
**A.** Its IC50 is at least 10 µM.

**Q.** Which IC50 does the source give for `CNc1cc(Nc2cccc3c2OCCO3)nc2c(NC(=O)NC3CC3)cnn12` [Compound 139, 1-cyclopropyl-3-(5-((2,3-dihydrobenzo[b][1,4]dioxin-5-yl)amino)-7-(methylamino)pyrazolo[1,5-a]pyrimidin-3-yl)urea] here?
**A.** Its IC50 is under 1 µM.

**Q.** For `CNC(=O)Nc1cnn2c(NC)cc(Nc3cc(OC)cc4c3OCCO4)nc12` [Compound 81, 1-(5-((7-methoxy-2,3-dihydrobenzo[b][1,4]dioxin-5-yl)amino)-7-(methylamino)pyrazolo[1,5-a]pyrimidin-3-yl)-3-methylurea], which IC50 is on record?
**A.** The IC50 was under 1 µM.

**Q.** How did the IC50 turn out when `CNc1cc(Nc2cccc3c2OCCO3)nc2c(NC(=O)NC3CCCC3)cnn12` [Compound 108, 1-cyclopentyl-3-(5-((2,3-dihydrobenzo[b][1,4]dioxin-5-yl)amino)-7-(methylamino)pyrazolo[1,5-a]pyrimidin-3-yl)urea] was run?
**A.** The IC50 was under 1 µM.

**Q.** `CNc1cc(Nc2cc(C)cc(C)c2)nc2c(NC(=O)NCC#N)cnn12` [Compound 128, 1-(cyanomethyl)-3-(5-((3,5-dimethylphenyl)amino)-7-(methylamino)pyrazolo[1,5-a]pyrimidin-3-yl)urea] was tested. Which IC50 did it give?
**A.** The IC50 was under 1 µM.

**Q.** For `CCNC(=O)Nc1cnn2c(NC)cc(Nc3cccc4c3OCCO4)nc12` [Compound 147, 1-(5-((2,3-dihydrobenzo[b][1,4]dioxin-5-yl)amino)-7-(methylamino)pyrazolo[1,5-a]pyrimidin-3-yl)-3-ethylurea], which IC50 is on record?
**A.** The IC50 was under 1 µM.

**Q.** `CNC(=O)Nc1cnn2c(NC)cc(Nc3cccc4cccnc34)nc12` [Compound 64, 1-methyl-3-(7-(methylamino)-5-(quinolin-8-ylamino)pyrazolo[1,5-a]pyrimidin-3-yl)urea] was tested. Which IC50 did it give?
**A.** Its IC50 is under 1 µM.

**Q.** With `CNc1cc(Nc2cccc3occc23)nc2c(NC(=O)N[C@@H]3C[C@@H]3F)cnn12` [Compound 50, 1-(5-(benzofuran-4-ylamino)-7-(methylamino)pyrazolo[1,5-a]pyrimidin-3-yl)-3-((1R,2S)-2-fluorocyclopropyl)urea] as the compound, how does the IC50 read?
**A.** Its IC50 is under 1 µM.

**Q.** How did the IC50 turn out when `CNc1cc(Nc2cccc3c2OCCO3)nc2c(NC(=O)NCCCO)cnn12` [Compound 100, 1-(5-((2,3-dihydrobenzo[b][1,4]dixoin-5-y)amino)-7-(methylamino)pyrazolo[1,5-a]pyrimidin-3-yl)-3-(3-hydroxypropyl)urea] was run?
**A.** Its IC50 is 1 to 10 µM.

**Q.** With `CNC(=O)Nc1cnn2c(NC)cc(Nc3cccc(OC)c3OC)nc12` [Compound 97, 1-(5-((2,3-dimethoxyphenyl)amino)-7-(methylamino)pyrazolo[1,5-a]pyrimidin-3-yl)-3-methylurea] as the compound, how does the IC50 read?
**A.** Its IC50 is 1 to 10 µM.

**Q.** `CNc1cc(Nc2cccc3cccnc23)nc2c(NC(=O)NC3CC3O)cnn12` (stereo not shown) [Compound 31, 1-(2-hydroxycyclopropyl)-3-(7-(methylamino)-5-(quinolin-8-ylamino)pyrazolo[1,5-a]pyrimidin-3-yl)urea] was tested. Which IC50 did it give?
**A.** Its IC50 is at least 10 µM.
